Assay: Stability test of Formula A, contents by gas chromatography
Format: physicochemical
Settings: in Formula A; for Content T3 months (25/60) / Content T3 months (40/75): 3 months; for Content T3 months (25/60) / Content T7 months (25/60): 25° C. and 60% RH; for Content T3 months (40/75): 40° C. and 75% RH; for Content T7 months (25/60): 7 months; for Content T0 month: white glass flask
Experimental: Detection and measures of the valeric acid, ethyl lactate and linoleic acid were made by using Gas chromatography (GC). Approximately 490 mg of linoleic acid, 53 mg of valeric acid and 78 mg of ethyl lactate accurately weighed are introduced into a 50 ml volumetric flask. This is completed to volume with ethyl acetate. […] A dilution 1/20 is made and completed to volume with ethyl acetate and the solution is stirred to homogenize. Approximately 2.5 g of Formula tested is introduced into a 20 ml volumetric flask. This is completed to volume with ethyl acetate. […] The solution is limpid. Gas chromatography equipped with a Capillary Column HP-FFAP 25 m×320 μm and a FID detector at 250° C. 1 μl of the solution is injected in the inlet (250° C.) and eluted through the column with Helium at constant flow (3 ml/min). Valeric acid (≈5.2 min), linoleic acid (≈13.5 min) and ethyl lactate (≈2.7 min) are quantified and contents thereof (% w/w) are given by the ratio of the areas of the peak corresponding to valeric acid, linoleic acid or ethyl lactate in the chromatogram obtained with the sample preparation and the standard solution.

| SMILES | Content T3 months (25/60) | Content T3 months (40/75) | Content T7 months (25/60) | Content T0 month |
| --- | --- | --- | --- | --- |
| CCOC(=O)C(C)O (stereo not drawn) [Ethyl lactate] | 0.060 % w/w | 0.059 % w/w | 0.059 % w/w | 0.0625 % w/w |
| CCCCC/C=C\C/C=C\CCCCCCCC(=O)O [Linoleic acid] | 0.386 % w/w | 0.364 % w/w | 0.398 % w/w | 0.395 % w/w |
| CCCCC(=O)O [Valeric acid] | 0.039 % w/w | 0.038 % w/w | 0.039 % w/w | 0.0425 % w/w |
